Data taken from patent publication US9107814B2, “Micelle composition of polymer and passenger drug” (Wisconsin Alumni Research Foundation, priority 2005, dated 2015).
Converted amounts (≈) assume the structure as drawn. Like-named read-outs stand apart in the source and are kept apart here. Blank lines part the entries; values can stand above or below the molecule they belong to.

Legend:
[1] = tested on: MDA-MB-468 breast cancer cell line; experiment: MTS cytotoxicity assay; format: cell-based; conditions: MDA-MB-468, 4 days, drugs in 1% DMSO
Description: Cytotoxicities of the drugs to the MDA-MB-468 breast cancer cell line (ATCC) were determined. Cells are plated at a density of 3000 cells/well into 96 well plates (100 μl/well DMEM medium). After 24 hours, drugs were added dissolved in 1% DMSO. Cells were incubated with drugs for 4 days and toxicity determined using the MTS cytotoxicity assay according to manufacturer's directions (Promega, Madison, Wis.).

[2] = octanol-water partition coefficient by microemulsion electrokinetic chromatography (MEEKC); conditions: for log Po/w: pH 7.00 running buffer, ± standard deviation (n = 3)
Description: (§1) The octanol-water partition coefficient of geldanamycin was determined by microemulsion electrokinetic chromatography.
(§2) Running buffer was prepared by titration of 25-mM sodium phosphate monobasic with 50-mM sodium tetraborate to pH 7.00, and 1.44 g of sodium dodecyl sulfate, 6.49 g of 1-butanol, and 0.82 g of heptane were made up to 100 ml with phosphate-borate buffer. The running buffer was ultrasonicated for 30 min in a closed 250-ml flask in ice water (G112SP1 Special Ultrasonic Cleaner, Laboratory Supplies Company Inc., Hicksville, N.Y.). […] Compounds and standards (n=3) were dissolved in the running buffer (0.05 mg/ml) with 0.5 μL/ml of nitromethane and 0.5 μL/ml of 1-phenyldodecane by ultrasonication (10 min) in a closed tube and centrifuged (16000×g, 3 min) to degas. A BioFocus 3000 capillary electrophoresis system (Bio-Rad, Hercules, Calif.) equipped with a 50-μm ID×37-cm uncoated fused-silica column (Polymicron Technologies LLC, Phoenix, Ariz.) was used for MEEKC experiments. The column was prewashed with 1-M NaOH for 5 min and before runs with 0.1-M NaOH for 1 min, ddH2O for 1 min, and running buffer for 1 min at 100 psi (690 kPa). Running conditions were 10 kV (ca. 30-35 μA, 30 min/run) at 20° C. with 1-psi·s injections (6.9 kPa·s) and detection at 210 and 232 nm. Log Po/w and retention factors, k′, were calculated using the equations:
(§3) [formula] [formula] where tr, t0, and tme are retention times of the prodrug, nitromethane, and 1-phenyldodecane, respectively. Fitting parameters a and b were determined by linear regression of known standards: pyridine, phenol, benzoic acid, anisole, benzene, toluene, dodecanoic acid, benzopyrene, and pyrene (R^2=0.996, Excel® 2003, Microsoft Corp.).

[3] = paclitaxel prodrug loading and sizing of PEG-b-PCL micelles; format: physicochemical; conditions: for Solubilized / prodrug w/w % / prodrug:caprolactone: 20% w/w prodrug loading in 0.5-mM PEG-b-PCL micelles; for Diameter (intensity): DLS, PEG-PCL micelles prepared at 20% w/w drug; for Solubilized (in parentheses): after evaporation to 25% of original volume and refiltration (0.22-μm)
Description: The organic solvent was then removed by stirring under an air purge. Where stated, samples were further concentrated by prolonged evaporation under an air purge. After removing the organic solvent, PEG-b-PCL micelles were passed through a 0.22-μm polyestersulfone filter to remove insoluble material and unincorporated drug. In a typical experiment, […] of PEG-b-PCL was dissolved in 0.75 ml of dry acetone and added dropwise (50 μL/min) to 2 ml of ddH2O yielding 0.5-mM PEG-b-PCL micelles after removing the volatile organic solvent.
The incorporation of prodrugs into PEG-b-PCL micelles was verified by equivalent retention times in UV and RI chromatographs from gel permeation chromatography. PEG-b-PCL micelles were injected on an OHpak SB-806M GPC column (20-μL injections, 0.5-mM PEG-b-PCL, 0.75 ml/min of ddH2O, 10° C.) (Shodex, Kawasaki, Japan) and detected by refractive index (RI) and UV absorbance (232 nm). Prodrug loading into PEG-b-PCL micelles was quantitatively determined by reverse-phase HPLC (Alltech Econosphere 3-μm 4.6×50 mm) using a 0.01% (v/v) trifluoroacetic acid—ACN gradient (40-100% ACN, 50° C., 232-nm detection). Hydrodynamic diameters of PEG-b-PCL micelles were determined by dynamic light scattering (DLS) (NICOMP 380 ZLS, Particle Sizing Systems, Santa Barbara, Calif.). Data were analyzed by intensity-weighted Gaussian distribution fitting (NICOMP version 1.76). Measurements were made for a minimum of 10 min or at least 100×10^5 counts in channel 1.

[4] = cited from earlier work
[5] = cited from earlier work; remark: listed apart in the source
[6] = geldanamycin prodrug loading into and release from PEG-b-PCL micelles; format: physicochemical; conditions: for Diff Coef: 0.5 mM PEG-b-PCL (5000:10000 Da) micelles, pH 7.4 phosphate buffer, 37° C., 10000MWCO dialysis; for w/w drug/carrier / Conc: 0.5 mM PEG-b-PCL micelles; for w/w drug/carrier: target 25% wt loading; for Conc: target […]; for time after which almost/substantially all the drug is released: prodrug loaded micelles; for fraction released: prodrug in micelles
Description: Drug diffusion was calculated as described in Forrest and Kwon, 2005 (Journal of Controlled Release).
PEG-PCL micelles are prepared by the drop-wise addition of geldanamycin prodrug and PEG-PCL dissolved in a miscible solvent, acetone, to vigorously stirred water, followed by removal of the solvent by N2 purge, and 0.2-μm filtration. Alternatively, the solution may be centrifuged to remove unincorporated and aggregated drug. The final solvent to water ratio is between about 0.1 and about 5, preferably between about 0.5 and about 4, and more preferably about 2. The micelle solution should be delivered at a rate of between about 2 s/drop and about 60 s/drop, preferably between about 5 s/drop and about 30 s/drop, and more preferably between about 10 s/drop and about 20 s/drop.

[7] = preclinical trials; cited from earlier work
[8] = cited from earlier work; remark: listed apart in the source
[9] = loading of rapamycin and geldanamycin into PEG-DSPE and PEG-PCL micelles; format: physicochemical; conditions: micelle solution against water solubility
Description: The final solvent to water ratio is between about 0.1 and about 5, preferably between about 0.5 and about 4, and more preferably about 2. The micelle solution should be delivered at a rate of between about 2 s/drop and about 60 s/drop, preferably between about 5 s/drop and about 30 s/drop, and more preferably between about 10 s/drop and about 20 s/drop.

Description for physchem: as §1, §2, §3

Compound: COC1C=CC=C(C)C(=O)NC2=CC(=O)C(NCCO)=C(CC(C)CC(OC)C(O)C(C)C=C(C)C1OC(N)=O)C2=O (stereo not shown) [17-hydroxyethylamino-17-demethoxygeldanamycin, reference compound]
IC50 [1]: 73 nM

Compound: CCCCCC(=O)O[C@H]1C[C@H]2OC[C@@]2(OC(C)=O)[C@H]2[C@H](OC(=O)c3ccccc3)[C@]3(O)C[C@H](OC(=O)[C@H](O)[C@@H](NC(=O)c4ccccc4)c4ccccc4)C(C)=C([C@@H](OC(C)=O)C(=O)[C@]12C)C3(C)C [Prodrug 4a]
log Po/w [2]: 4.43 ± 0.06 | Solubilized [3]: 1.55 ± 0.04 mg/mL | prodrug w/w % [3]: 17.1% | prodrug:caprolactone [3]: 36.5 mmol:mol | Diameter (intensity) [3]: 34 ± 4 nm | Solubilized (in parentheses) [3]: 5.1 ± 0.5 mg/mL

Compound: CCCCCC(=O)OCCNC1=C2CC(C)CC(OC)C(O)C(C)C=C(C)C(OC(N)=O)C(OC)C=CC=C(C)C(=O)NC(=CC1=O)C2=O (stereo not shown) [17-aminoethyl-hexonate-17-demethoxygeldanamycin]
IC50 [1]: 240 nM

Compound: C=CCNC1=C2C[C@@H](C)C[C@H](OC)[C@H](O)[C@@H](C)/C=C(\C)[C@H](OC(N)=O)[C@@H](OC)/C=C\C=C(/C)C(=O)NC(=CC1=O)C2=O [Prodrug 17-AAG]
MTD dog ([4]; in vivo): 500 mg/m^2 | dose limiting toxicity ([5]; Phase I): GI toxicity to be dose limiting | suggested Phase II dosing ([5]; from Phase I results): 40 mg/m^2

log Po/w [2]: 4.59 ± 0.18 | Solubilized [3]: 1.47 ± 0.03 mg/mL | prodrug w/w % [3]: 16.4% | prodrug:caprolactone [3]: 31.8 mmol:mol | Diameter (intensity) [3]: 27 ± 5 nm | Solubilized (in parentheses) [3]: 2.2 ± 0.5 mg/mL
Compound: CCCCCCCCCCCC(=O)O[C@H]1C[C@H]2OC[C@@]2(OC(C)=O)[C@H]2[C@H](OC(=O)c3ccccc3)[C@]3(O)C[C@H](OC(=O)[C@H](O)[C@@H](NC(=O)c4ccccc4)c4ccccc4)C(C)=C([C@@H](OC(C)=O)C(=O)[C@]12C)C3(C)C [Prodrug 4b]

Compound: CCCCCCCCCCCCCCCCNC1=C2CC(C)CC(OC)C(O)C(C)C=C(C)C(OC(N)=O)C(OC)C=CC=C(C)C(=O)NC(=CC1=O)C2=O (stereo not shown) [17-amino-hexyldecyl-17-demethoxygeldanamycin]
Log Po/w [2]: 4.30 | Diff Coef [6]: 1.69 × 10^−20 cm2/s | w/w drug/carrier [6]: 20 ± 2% | Conc [6]: 1500 µg/mL | time after which almost/substantially all the drug is released [6]: about 12 days | fraction released ([6]; time 0 days): 0 | fraction released ([6]; time 0.83 days): 0 | fraction released ([6]; time 2 days): 0.1398 | fraction released ([6]; time 4 days): 0.3551 | fraction released ([6]; time 6 days): 0.3985 | fraction released ([6]; time 8 days): 0.6364 | fraction released ([6]; time 10 days): 0.7517 | fraction released ([6]; time 12 days): 0.8238

Compound: CCCCCCCCCCCCCCCC(=O)O[C@@H](C(=O)O[C@H]1C[C@@]2(O)[C@@H](OC(=O)c3ccccc3)[C@@H]3[C@]4(OC(C)=O)CO[C@@H]4C[C@H](O)[C@@]3(C)C(=O)[C@H](OC(C)=O)C(=C1C)C2(C)C)[C@@H](NC(=O)c1ccccc1)c1ccccc1 [Prodrug 5c, 2-palmitate-paclitaxel]
log Po/w [2]: 4.51 ± 0.04 | Solubilized [3]: 1.85 ± 0.05 mg/mL | prodrug w/w % [3]: 19.8% | prodrug:caprolactone [3]: 40.0 mmol:mol | Diameter (intensity) [3]: 37 ± 6 nm | Solubilized (in parentheses) [3]: > 3 mg/mL

log Po/w [2]: 4.48 ± 0.06 | Solubilized [3]: 1.62 ± 0.03 mg/mL | prodrug w/w % [3]: 21.6% | prodrug:caprolactone [3]: 33.3 mmol:mol | Diameter (intensity) [3]: 44 ± 2 nm | Solubilized (in parentheses) [3]: 3.0 ± 0.9 mg/mL
Compound: CCCCCCCCCCCCCCCC(=O)O[C@H]1C[C@H]2OC[C@@]2(OC(C)=O)[C@H]2[C@H](OC(=O)c3ccccc3)[C@]3(O)C[C@H](OC(=O)[C@H](O)[C@@H](NC(=O)c4ccccc4)c4ccccc4)C(C)=C([C@@H](OC(C)=O)C(=O)[C@]12C)C3(C)C [Prodrug 4c, 7-palmitate-paclitaxel]

Log Po/w [2]: 4.16 | Diff Coef [6]: 2.55 × 10^−20 cm2/s | w/w drug/carrier [6]: 21 ± 2% | Conc [6]: 1600 µg/mL | time after which almost/substantially all the drug is released [6]: about 8 days | fraction released ([6]; time 0 days): 0 | fraction released ([6]; time 0.83 days): 0.1688 | fraction released ([6]; time 2 days): 0.2909 | fraction released ([6]; time 4 days): 0.3431 | fraction released ([6]; time 6 days): 0.8531 | fraction released ([6]; time 8 days): 0.9878
Compound: CCCCCCCCCCCC(=O)OCCNC1=C2CC(C)CC(OC)C(O)C(C)C=C(C)C(OC(N)=O)C(OC)C=CC=C(C)C(=O)NC(=CC1=O)C2=O (stereo not shown) [17-aminoethyl-dodeconate-17-demethoxygeldanamycin]

log Po/w [2]: 4.45 ± 0.03 | Solubilized [3]: 1.42 ± 0.11 mg/mL | prodrug w/w % [3]: 17.8% | prodrug:caprolactone [3]: 33.4 mmol:mol | Diameter (intensity) [3]: 32 ± 0 nm | Solubilized (in parentheses) [3]: > 3 mg/mL
Compound: CCCCCC(=O)O[C@@H](C(=O)O[C@H]1C[C@@]2(O)[C@@H](OC(=O)c3ccccc3)[C@@H]3[C@]4(OC(C)=O)CO[C@@H]4C[C@H](O)[C@@]3(C)C(=O)[C@H](OC(C)=O)C(=C1C)C2(C)C)[C@@H](NC(=O)c1ccccc1)c1ccccc1 [Prodrug 5a]

log Po/w [2]: 4.49 ± 0.03 | Solubilized [3]: 1.57 ± 0.02 mg/mL | prodrug w/w % [3]: 17.3% | prodrug:caprolactone [3]: 34.0 mmol:mol | Diameter (intensity) [3]: 28 ± 0 nm | Solubilized (in parentheses) [3]: > 3 mg/mL
Compound: CCCCCCCCCCCC(=O)OC(C(=O)OC1CC2(O)C(OC(=O)c3ccccc3)C3C4(OC(C)=O)COC4CC(O)C3(C)C(=O)C(OC(C)=O)C(=C1C)C2(C)C)C(NC(=O)c1ccccc1)c1ccccc1 (stereo not shown) [Prodrug 5b]

Diff Coef [6]: 3.61 × 10^−20 cm2/s | w/w drug/carrier [6]: 22 ± 5% | Conc [6]: 1700 µg/mL | time after which almost/substantially all the drug is released [6]: about 8 days | fraction released ([6]; time 0 days): 0 | fraction released ([6]; time 0.83 days): 0.1695 | fraction released ([6]; time 2 days): 0.2916 | fraction released ([6]; time 4 days): 0.6116 | fraction released ([6]; time 8 days): 0.9528
Compound: CCCCCCCCCCCCCCCC(=O)OCCNC1=C2CC(C)CC(OC)C(O)C(C)C=C(C)C(OC(N)=O)C(OC)C=CC=C(C)C(=O)NC(=CC1=O)C2=O (stereo not shown) [17-aminoethyl-palmitate-17-demethoxygeldanamycin]
IC50 [1]: 350 nM

chromatographic logP (physchem; pH 7): 4.4 ± 0.06 | Solubilized [3]: <0.2 mg/mL | prodrug:caprolactone [3]: <1 mmol:mol
Compound: CC(=O)O[C@H]1C(=O)[C@@]2(C)[C@H]([C@H](OC(=O)c3ccccc3)[C@]3(O)C[C@H](OC(=O)[C@H](O)[C@@H](NC(=O)c4ccccc4)c4ccccc4)C(C)=C1C3(C)C)[C@]1(OC(C)=O)CO[C@@H]1C[C@@H]2O [Paclitaxel, reference compound]

Compound: CO[C@H]1/C=C\C=C(/C)C(=O)NC2=CC(=O)C(NCCN(C)C)=C(C[C@@H](C)C[C@H](OC)[C@H](O)[C@@H](C)/C=C(\C)[C@@H]1OC(N)=O)C2=O [Prodrug 17DMAG]
MTD dog [4]: 8 mg/m^2

Compound: COC1=C2C[C@@H](C)C[C@H](OC)[C@H](O)[C@@H](C)/C=C(\C)[C@H](OC(N)=O)[C@@H](OC)/C=C\C=C(/C)C(=O)NC(=CC1=O)C2=O [Geldanamycin]
dose limiting severe hepatotoxicity [7]: 4 mg/kg | MTD dog [4]: < 100 mg/m^2 | water solubility [8]: ~1.5 µg/mL (≈ 2.68 µM) | chromatographic logP (physchem): ~2.77 | increase in solubility [9]: 300 fold | IC50 ([1]; Homo sapiens, 96 h): 5 nM
